Where a name gives a salt, the structure may show the parent alone.

One test addresses T1, DDR1 protein (Homo sapiens, UniProt Q08345).
T1 construct: purchased Carna Biosciences 08-113
The test is described as follows: Evaluation of DDR1 kinase inhibitory activity (LANCE Ultra TR-FRET). The format is biochemical. The following applies: DDR1 protein 0.5 nM, ATP 100 μM, 2 hours at room temperature; read-out: DDR-1 IC50. On the procedure:
The test was performed in duplicate.

The target in test [1] is T2, DDR1 kinase in DDR1-expressing U2OS cells (Homo sapiens, UniProt Q08345).
T2 construct: host or cells: U2OS
T2 sequence (Q08345 19-913): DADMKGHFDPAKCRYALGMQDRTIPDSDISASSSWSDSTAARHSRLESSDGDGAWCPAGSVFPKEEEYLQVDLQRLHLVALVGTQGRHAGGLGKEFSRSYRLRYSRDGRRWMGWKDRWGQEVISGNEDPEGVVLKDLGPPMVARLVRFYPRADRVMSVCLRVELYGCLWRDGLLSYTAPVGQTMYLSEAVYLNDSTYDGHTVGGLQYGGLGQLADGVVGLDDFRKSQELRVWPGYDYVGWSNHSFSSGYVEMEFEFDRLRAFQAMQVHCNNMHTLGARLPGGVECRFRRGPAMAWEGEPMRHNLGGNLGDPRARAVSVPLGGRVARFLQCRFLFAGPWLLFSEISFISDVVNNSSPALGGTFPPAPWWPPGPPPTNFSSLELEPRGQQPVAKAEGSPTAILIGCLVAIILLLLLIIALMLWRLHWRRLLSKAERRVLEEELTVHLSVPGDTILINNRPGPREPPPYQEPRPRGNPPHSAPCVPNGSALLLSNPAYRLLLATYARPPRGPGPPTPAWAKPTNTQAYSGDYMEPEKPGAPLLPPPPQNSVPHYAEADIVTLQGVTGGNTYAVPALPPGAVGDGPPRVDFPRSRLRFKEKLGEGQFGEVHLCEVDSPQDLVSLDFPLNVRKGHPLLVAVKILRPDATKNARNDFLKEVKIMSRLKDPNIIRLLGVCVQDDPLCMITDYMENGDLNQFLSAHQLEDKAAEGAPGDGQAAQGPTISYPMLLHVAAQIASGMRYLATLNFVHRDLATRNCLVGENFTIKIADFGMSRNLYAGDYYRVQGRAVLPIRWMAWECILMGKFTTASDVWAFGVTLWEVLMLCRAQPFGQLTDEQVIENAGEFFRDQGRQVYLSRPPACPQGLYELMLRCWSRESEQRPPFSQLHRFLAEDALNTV
The test is described as follows: DDR1 kinase inhibitory effect in DDR1-expressing U2OS cells (PathHunter, type I collagen stimulation). To be noted: type I collagen 50 μg/mL, 10% FBS, read-out: DDR-1 IC50. The format is cell-based. As to the method: Test compounds in DMSO were prepared at 10 mM and diluted with DMSO to final concentrations of 1000, 100, 10, 1, and 0.1 μM. These solutions were diluted further with E-MEM medium (Fujifilm Wako Pure Chemical Industries, 051-07615) containing 10% fetal bovine serum (FBS, Gibco, 10270106) to 60,000, 6,000, 600, 60, 6, and 0.6 nM to obtain test sample solutions.
DDR1-expressing U2OS cells (DiscoverX, 93-0894C3) suspended at 2.5×10^5 cells/mL in 10% FBS+E-MEM medium were seeded in 384-well plates (DiscoverX, 92-0013) in 20 μL portions and cultured overnight at 37° C. and 5% CO2.
The next day, the test sample solutions as prepared were added at 5 μL/well to final concentrations of 10,000, 1,000, 100, 10, 1, and 0.1 nM. After incubation at 37° C. and 5% CO2 for 1 hour, type I collagen (Nitta Gelatin, 631-00771) was added at 5 μL/well to a final concentration of 50 μg/mL, and cultured overnight at 37° C. and 5% CO2.
The next day, the plate was left at room temperature for 1 hour, after which 5 μL/well of detection solution was added according to the instruction manual for the PathHunter (registered trademark) Detection Kit (DiscoverX, 93-0001). […] The test was performed in duplicate.

Test [2] concerns anti-glomerular basement membrane antibody-induced nephritis model. The test is described as follows: In vivo efficacy study using anti-glomerular basement membrane antibody-induced nephritis model. Set-up: species or system WKY/NCrlCrlj rats. The following applies: rat, 24-hour urine. On the procedure:
The test compound was weighed and suspended in 0.5% methylcellulose (Shin-Etsu Chemical Co., Ltd.)+99.5% Otsuka distilled water (Otsuka Pharmaceutical Factory) to prepare a test sample solution for administration. 300 μL of phosphate buffered saline (Wako, 045-29795) containing 33.3 μg/mL anti-glomerular basement membrane antibody (Chondrex, 70221) was intravenously administered into the tail vein of WKY/NCrlCrlj rats (7-week-old males). 7 days after, the test sample was administered twice a day for 7 days, and the rats were moved to a metabolism/urine collection cage from the 6th to 7th days of the starting of the administration, and the 24-hour urine was collected. The weight of the collected urine was measured. 150 μL of urine was transferred to a sample cup (650-M, BMBio ST). The albumin concentration in urine was measured using a JCA-BM6050 automatic analyzer (JEOL). The amount of albumin in urine was determined with correction for the measured urine weight. The amounts of albumin in urine in the group without administration of anti-glomerular basement membrane antibody and the group with administration of vehicle were set at 0% and 100%, respectively, and the ratio of the amount of albumin in urine in the group administered with the test compound was calculated.

[3] abbreviates: dose 50 mg/kg twice a day for 7 days.

T1 sequence (Q08345 19-876 isoform Q08345-2 limits assumed): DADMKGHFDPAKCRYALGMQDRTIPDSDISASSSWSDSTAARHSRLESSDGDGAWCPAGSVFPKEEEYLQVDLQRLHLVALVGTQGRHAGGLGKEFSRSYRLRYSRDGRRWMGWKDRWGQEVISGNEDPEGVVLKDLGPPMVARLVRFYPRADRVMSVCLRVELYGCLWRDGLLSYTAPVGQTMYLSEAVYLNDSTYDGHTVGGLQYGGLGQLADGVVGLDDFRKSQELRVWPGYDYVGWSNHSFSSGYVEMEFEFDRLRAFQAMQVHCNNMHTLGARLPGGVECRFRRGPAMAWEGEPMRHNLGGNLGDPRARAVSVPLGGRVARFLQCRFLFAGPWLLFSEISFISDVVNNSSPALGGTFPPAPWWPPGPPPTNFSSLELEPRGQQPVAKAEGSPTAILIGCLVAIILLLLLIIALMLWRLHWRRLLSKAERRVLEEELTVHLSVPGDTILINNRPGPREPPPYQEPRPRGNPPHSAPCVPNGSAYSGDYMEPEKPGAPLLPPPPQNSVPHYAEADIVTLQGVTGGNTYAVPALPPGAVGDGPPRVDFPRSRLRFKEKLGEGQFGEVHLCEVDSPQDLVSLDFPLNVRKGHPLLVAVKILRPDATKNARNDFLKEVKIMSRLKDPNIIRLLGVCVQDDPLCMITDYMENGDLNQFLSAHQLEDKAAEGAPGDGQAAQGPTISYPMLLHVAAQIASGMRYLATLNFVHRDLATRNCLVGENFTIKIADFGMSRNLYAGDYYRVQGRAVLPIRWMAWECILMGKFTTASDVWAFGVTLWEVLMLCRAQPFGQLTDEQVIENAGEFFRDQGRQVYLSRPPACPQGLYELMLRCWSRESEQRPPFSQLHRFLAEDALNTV

What is called IC50 is the concentration needed to halve the response being measured. In the case of `O=C(N[C@H]1C[C@H](OC(F)(F)F)C[C@@H]1O)c1ccc(OC(F)F)c(C#Cc2cncnc2)c1` [Example 1, 4-(Difluoromethoxy)-N-[(1S,2S,4S)-2-hydroxy-4-(trifluoromethoxy)cyclopentyl]-3-[(pyrimidin-5-yl)ethynyl]benzamide], the IC50 was 7 nM at DDR1 protein and 29 nM in test [1]. Moreover, the “Urinary albumin (% of vehicle-administered group)” value in test [2] (setting [3]) is recorded as 70 % of vehicle-administered grou.
Take `Nc1ncc(C#Cc2cc(C(=O)N[C@H]3C[C@H](OC(F)(F)F)C[C@@H]3O)ccc2OC(F)F)cn1` [Example 3, 3-[2-(2-Aminopyrimidin-5-yl)ethynyl]-4-(difluoromethoxy)-N-[(1S,2S,4S)-2-hydroxy-4-(trifluoromethoxy)cyclopentyl]benzamide]: the IC50 on DDR1 protein is 0.86 nM; in test [1], 3.6 nM. Moreover, the “Urinary albumin (% of vehicle-administered group)” value in test [2] (setting [3]) is 78 % of vehicle-administered grou.
For `Nc1cnc(C#Cc2cc(C(=O)N[C@H]3C[C@H](OC(F)(F)F)C[C@@H]3O)ccc2OC(F)F)cn1` [Example 4, 3-[2-(5-Aminopyrazin-2-yl)ethynyl]-4-(difluoromethoxy)-N-[(1S,2S,4S)-2-hydroxy-4-(trifluoromethoxy)cyclopentyl]benzamide], the values for the IC50 (at DDR1 protein; in test [1]) were 0.56 nM and 18 nM, respectively. Further, the “Urinary albumin (% of vehicle-administered group)” value in test [2] (dose 25 mg/kg twice a day for 7 days) is reported as 69 % of vehicle-administered grou.
Turning to `COc1nc(N)ncc1C#Cc1cc(C(=O)N[C@H]2C[C@H](OC(F)(F)F)C[C@@H]2O)ccc1OC(F)F` [Example 5, 3-[2-(2-Amino-4-methoxypyrimidin-5-yl)ethynyl]-4-(difluoromethoxy)-N-[(1S,2S,4S)-2-hydroxy-4-(trifluoromethoxy)cyclopentyl]benzamide], the IC50 worked out at 0.25 nM at DDR1 protein and 1.8 nM in test [1]. For the same compound, the “Urinary albumin (% of vehicle-administered group)” value in test [2] (dose 10 mg/kg twice a day for 7 days) is reported as 57 % of vehicle-administered grou.
Regarding `Cn1cc(C#Cc2cc(C(=O)N[C@H]3C[C@H](OC(F)(F)F)C[C@@H]3O)ccc2OC(F)F)cn1` [Example 6, 4-(Difluoromethoxy)-N-[(1S,2S,4S)-2-hydroxy-4-(trifluoromethoxy)cyclopentyl]-3-[2-(1-methyl-1H-pyrazol-4-yl)ethynyl]benzamide], the 50% inhibitory concentration (IC50) worked out at 0.39 nM at DDR1 protein and 58 nM in test [1]. Further, the “Urinary albumin (% of vehicle-administered group)” value in test [2] (dose 5 mg/kg twice a day for 7 days) is recorded as 72 % of vehicle-administered grou.
As to `Nc1ncc(C#Cc2cc(C(=O)N[C@H](CO)Cc3ccc(Cl)cc3)ccc2OC(F)F)cn1` [Example 35, 3-[2-(2-Aminopyrimidin-5-yl)ethynyl]-N-[(2S)-1-(4-chlorophenyl)-3-hydroxypropan-2-yl]-4-(difluoromethoxy)benzamide hydrochloride], the IC50 worked out at 3.3 nM at DDR1 protein and 12 nM in test [1].
On to `Nc1ncc(C#Cc2cc(C(=O)N[C@H](CO)c3ccccc3)ccc2OC(F)F)cn1` [Example 36, 3-[2-(2-Aminopyrimidin-5-yl)ethynyl]-4-(difluoromethoxy)-N-[(1S)-2-hydroxy-1-phenylethyl]benzamide hydrochloride], for which the IC50 at DDR1 protein stood at 8.6 nM; in test [1] it was 230 nM.
Take `Nc1ncc(/C(F)=C/c2cc(C(=O)N[C@H]3CC(F)(F)CC[C@@H]3O)ccc2OC(F)F)cn1` [Example 37, 3-[(1Z)-2-(2-Aminopyrimidin-5-yl)-2-fluoroethenyl]-N-[(1S,2S)-5,5-difluoro-2-hydroxycyclohexyl]-4-(difluoromethoxy)benzamide]: the IC50 on DDR1 protein is 15 nM; in test [1], 40 nM.
For `Nc1ncc(/C(F)=C/c2cc(C(=O)N[C@H]3CCCC[C@@H]3O)ccc2OC(F)F)cn1` [Example 38, 3-[(1Z)-2-(2-Aminopyrimidin-5-yl)-2-fluoroethenyl]-4-(difluoromethoxy)-N-[(1S,2S)-2-hydroxycyclohexyl]benzamide], the IC50 on DDR1 protein turned out to be 12 nM; in test [1] it was 99 nM.
`Nc1ncc(/C=C(\F)c2cc(C(=O)N[C@H]3C[C@H](OC(F)(F)F)C[C@@H]3O)ccc2OC(F)F)cn1` [Example 39, 3-[(1Z)-2-(2-Aminopyrimidin-5-yl)-1-fluoroethenyl]-4-(difluoromethoxy)-N-[(1S,2S,4S)-2-hydroxy-4-(trifluoromethoxy)cyclopentyl]benzamide]: the values for the IC50 (on DDR1 protein; in test [1]) were 0.39 nM and 3.9 nM, respectively.
For `Nc1ncc(/C=C(\F)c2cc(C(=O)N[C@H]3CC4(CC4)C[C@@H]3O)ccc2OC(F)F)cn1` [Example 40, 3-[(1Z)-2-(2-Aminopyrimidin-5-yl)-1-fluoroethenyl]-4-(difluoromethoxy)-N-[(5S,6S)-6-hydroxyspiro[2.4]heptan-5-yl]benzamide] the same measures were 0.48 nM and 5.6 nM.
For `NC(=O)c1ncc2cc(-c3cc(C(=O)N[C@H]4CC(F)(F)CC[C@@H]4O)cnc3C(F)(F)F)ccn12` [Example 41, 5-{3-Carbamoylimidazo[1,5-a]pyridin-7-yl}-N-[(1S,2S)-5,5-difluoro-2-hydroxycyclohexyl]-6-(trifluoromethyl)pyridine-3-carboxamide], the IC50 at DDR1 protein was found to be 60 nM; in test [1], 350 nM.
For `CCc1ccc(C(=O)N[C@H]2C[C@H](OC(F)(F)F)C[C@@H]2O)cc1NC(=O)c1cncc(OCC2CC2)c1` [Example 42, 5-(Cyclopropylmethoxy)-N-(2-ethyl-5-{[(1S,2S,4S)-2-hydroxy-4-(trifluoromethoxy)cyclopentyl]carbamoyl}phenyl)pyridine-3-carboxamide], in that order: 1.6 nM and 54 nM.
As for `CCc1ccc(C(=O)N[C@H](CO)CCOC(F)(F)F)cc1NC(=O)c1cncc(OCC2CC2)c1` [Example 43, 5-(Cyclopropylmethoxy)-N-(2-ethyl-5-{[(2S)-1-hydroxy-4-(trifluoromethoxy)butan-2-yl]carbamoyl}phenyl)pyridine-3-carboxamide], the IC50 on DDR1 protein was determined as 68 nM; in test [1] it was 240 nM.
As for `CCc1ccc(C(=O)N[C@H](CO)CCOC(F)(F)F)cc1NC(=O)c1cnc(NCC2CC2)s1` [Example 44, 2-[(Cyclopropylmethyl)amino]-N-(2-ethyl-5-{[(2S)-1-hydroxy-4-(trifluoromethoxy)butan-2-yl]carbamoyl}phenyl)-1,3-thiazole-5-carboxamide], the IC50 is 9.4 nM at DDR1 protein and 15 nM in test [1].
On to `CCc1ccc(C(=O)N[C@H]2C[C@H](OC(F)(F)F)C[C@@H]2O)cc1NC(=O)c1cnc(NCC2CC2)s1` [Example 45, 2-[(Cyclopropylmethyl)amino]-N-(2-ethyl-5-{[(1S,2S,4S)-2-hydroxy-4-(trifluoromethoxy)cyclopentyl]carbamoyl}phenyl)-1,3-thiazole-5-carboxamide], for which the values for the IC50 (on DDR1 protein; in test [1]) were 1.3 nM and 6.8 nM, respectively.
With `CCc1ccc(C(=O)N[C@H]2C[C@H](OC(F)(F)F)C[C@@H]2O)cc1NC(=O)c1cnc(C2CC2)s1` [Example 46, 2-Cyclopropyl-N-(2-ethyl-5-{[(1S,2S,4S)-2-hydroxy-4-(trifluoromethoxy)cyclopentyl]carbamoyl}phenyl)-1,3-thiazole-5-carboxamide], the results for the IC50 (on DDR1 protein; in test [1]) were 9.1 nM and 44 nM, respectively.
As to `CCc1ccc(C(=O)N[C@H](CO)CCOC(F)(F)F)cc1NC(=O)c1cnc(CC2CC2)s1` [Example 47, 2-(Cyclopropylmethyl)-N-(2-ethyl-5-{[(2S)-1-hydroxy-4-(trifluoromethoxy)butan-2-yl]carbamoyl}phenyl)-1,3-thiazole-5-carboxamide], the IC50 on DDR1 protein is 51 nM; in test [1], 59 nM.

The record behind these values is patent US20260242343A1, “COMPOUND SERVING AS DDR1 KINASE INHIBITOR, AND MEDICINE” (NIPPON SHINYAKU CO., LTD., priority 2022, published 2026).
